This is an account of results in ChEMBL document CHEMBL3039007, “Structure-based identification of OATP1B1/3 inhibitors” (Mol Pharmacol, 2013).

For data set [1], the target named is T1, Solute carrier organic anion transporter family member 1B1 (Homo sapiens, UniProt Q9Y6L6).
T1 sequence (Q9Y6L6 whole entry): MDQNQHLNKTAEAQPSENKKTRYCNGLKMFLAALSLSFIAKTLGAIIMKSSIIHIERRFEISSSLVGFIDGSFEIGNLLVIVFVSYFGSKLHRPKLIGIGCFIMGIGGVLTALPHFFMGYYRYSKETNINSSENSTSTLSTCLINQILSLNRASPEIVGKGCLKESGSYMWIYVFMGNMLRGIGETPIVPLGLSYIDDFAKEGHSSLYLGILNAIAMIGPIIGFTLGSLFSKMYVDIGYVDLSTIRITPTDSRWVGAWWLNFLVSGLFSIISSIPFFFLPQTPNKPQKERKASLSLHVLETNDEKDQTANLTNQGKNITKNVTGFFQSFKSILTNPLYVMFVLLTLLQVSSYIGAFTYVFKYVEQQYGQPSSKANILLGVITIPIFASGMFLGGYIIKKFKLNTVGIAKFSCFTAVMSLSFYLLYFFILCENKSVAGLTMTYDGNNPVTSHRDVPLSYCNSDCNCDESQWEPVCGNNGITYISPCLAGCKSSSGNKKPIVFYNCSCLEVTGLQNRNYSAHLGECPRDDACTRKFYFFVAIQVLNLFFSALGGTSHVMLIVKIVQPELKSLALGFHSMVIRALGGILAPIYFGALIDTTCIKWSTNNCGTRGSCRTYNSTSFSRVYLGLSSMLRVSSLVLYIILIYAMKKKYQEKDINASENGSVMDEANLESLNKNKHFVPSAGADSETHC
To be noted: chinese hamster, cho, 10 µM.

Data set [2] concerns the target T2, Solute carrier organic anion transporter family member 1B3 (Homo sapiens, UniProt Q9NPD5).
T2 sequence (Q9NPD5 whole entry): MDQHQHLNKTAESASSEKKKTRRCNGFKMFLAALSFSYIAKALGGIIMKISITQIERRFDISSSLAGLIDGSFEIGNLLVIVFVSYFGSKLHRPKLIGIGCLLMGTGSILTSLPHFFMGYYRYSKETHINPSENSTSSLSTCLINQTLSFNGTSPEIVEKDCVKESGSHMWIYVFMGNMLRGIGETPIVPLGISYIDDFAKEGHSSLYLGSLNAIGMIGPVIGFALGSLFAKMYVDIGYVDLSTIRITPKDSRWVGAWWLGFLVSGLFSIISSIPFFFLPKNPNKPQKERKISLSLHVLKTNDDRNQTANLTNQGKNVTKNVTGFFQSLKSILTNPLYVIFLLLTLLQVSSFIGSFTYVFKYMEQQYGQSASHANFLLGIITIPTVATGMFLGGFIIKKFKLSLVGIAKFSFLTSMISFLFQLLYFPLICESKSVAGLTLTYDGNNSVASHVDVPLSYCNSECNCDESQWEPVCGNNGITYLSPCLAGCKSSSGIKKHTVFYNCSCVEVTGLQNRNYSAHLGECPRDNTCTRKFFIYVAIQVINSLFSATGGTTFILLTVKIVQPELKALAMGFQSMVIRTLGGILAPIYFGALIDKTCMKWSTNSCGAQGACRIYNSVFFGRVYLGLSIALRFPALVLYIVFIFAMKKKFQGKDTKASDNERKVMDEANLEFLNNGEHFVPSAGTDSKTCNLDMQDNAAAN
The note with it: chinese hamster, cho, 10 µM.

On to `Cc1cc(=O)[nH]c(=S)[nH]1` [METHYLTHIOURACIL], for which the residual activity in data set [1] is reported as 83.19%; in data set [2], 80.5%.

As for `COc1ccc(C(C)=O)c(OC)c1` [PEONOL METHYL ETHER], the residual activity in data set [1] is reported as 105.9%; in data set [2] it was 99.54%.

Regarding `CC(=O)Nc1ccc(O)cc1` [ACETAMINOPHEN], the residual activity in data set [1] is given as 99.98%; in data set [2], 96.68%.

For `CC[N+](C)(C)c1cccc(O)c1.[Cl-]` [EDROPHONIUM CHLORIDE], the residual activity in data set [1] is 79.44%; in data set [2], 93.08%.

Consider `CC(=O)OC[C@@]1(O)C[C@@]23CC[C@@H]4c5ccoc5CC[C@@]4(C)[C@@H]2CC[C@@H]1C3` [CAFESTOL ACETATE], for which the residual activity in data set [1] was determined as 108.6%; in data set [2], 89.68%.

`COc1ccc(CN(CCN(C)C)c2ncccn2)cc1.Cl` [THONZYLAMINE HYDROCHLORIDE]: the residual activity in data set [1] came out at 88.59%; in data set [2], 91.98%.

On to `C[C@]12CCC(=O)C=C1CCc1ccc(O)cc12` [12-HYDROXY-4,4-BISNOR-4,8,11,13-PODOCARPATETRAEN-3-ONE], for which the residual activity is given as 47.54% in data set [1] and 82.18% in data set [2].

Take `N[C@@H](CCC(=O)N[C@@H](CS)C(=O)NCC(=O)O)C(=O)O` [GLUTATHIONE]: the residual activity in data set [1] was 67.16%; in data set [2], 87.82%.

With `CC(=O)/N=c1/sc(S(N)(=O)=O)nn1C` [METHAZOLAMIDE], the residual activity was 101.3% in data set [1] and 93.09% in data set [2].

Turning to `COc1cc(C)c(C(=O)O)c(O)c1` [EVERNINIC ACID], the results for the residual activity in data set [1] and in data set [2] were 82.73% and 90.88%, respectively.

Consider `O=c1cccc2n1C[C@@H]1C[C@H]2CN2CCCC[C@H]12.[O-][Cl+3]([O-])([O-])O`, for which the residual activity in data set [1] was found to be 88.32%; in data set [2], 98.01%.

On to `C=C(C)c1cc2cc(C(C)=O)c(O)cc2o1` [EUPARIN], for which the residual activity in data set [1] stood at 94.93%; in data set [2], 98.85%.

As for `Cc1cc(=O)oc2cc(O)c(O)cc12` [4-METHYLESCULETIN], the residual activity in data set [1] is reported as 121.7%; in data set [2], 110.1%.

Regarding `ClC1=C(Cl)C2(Cl)C3C(Cl)C(Cl)CC3C1(Cl)C2(Cl)Cl` (configuration not stated) [CHLORDANE], the residual activity in data set [1] turned out to be 98.3%; in data set [2], 121.6%.

Consider `O=C1C=C(O)C(=O)c2ccccc21` [LAWSONE], for which the residual activity was found to be 99.76% in data set [1] and 101.6% in data set [2].

As to `CC[C@@]1(O)C(=O)OCc2c1cc1n(c2=O)Cc2cc3ccccc3nc2-1` [CAMPTOTHECIN], the residual activity in data set [1] came out at 74.81%; in data set [2], 107.3%.

`COc1ccc2c(c1OC)C(=O)O[C@H]2[C@H]1c2cc3c(cc2CCN1C)OCO3` [1R,9S-HYDRASTINE]: the values for the residual activity in data set [1] and in data set [2] were 94.94% and 84.49%, respectively.

As to `NCCCC(=O)O` [GAMMA-AMINOBUTYRIC ACID], the values for the residual activity in data set [1] and in data set [2] were 56.63% and 81.28%, respectively.

Regarding `COc1ccc2c(c1)OC/C(=C/c1ccc(O)c(O)c1)C2=O` [SAPPANONE A 7-METHYL ETHER], the residual activity in data set [1] is on record as 159.5%; in data set [2], 107.8%.

Consider `COc1cccc(O)c1O` [3-METHOXYCATECHOL], for which the residual activity is given as 98.75% in data set [1] and 107.5% in data set [2].

`Cc1ccc2c(Cl)cc(Cl)c(O)c2n1` [CHLORQUINALDOL]: the residual activity came out at 98.6% in data set [1] and 88.49% in data set [2].

Turning to `CC(=O)S[C@@H]1CC2=CC(=O)CC[C@]2(C)[C@H]2CC[C@@]3(C)[C@@H](CC[C@@]34CCC(=O)O4)[C@H]12` [SPIRONOLACTONE], the residual activity in data set [1] was determined as 52.45%; in data set [2], 103.5%.

For the molecule `O=c1[nH]cc(F)c(=O)[nH]1` [FLUOROURACIL], the residual activity in data set [1] is reported as 86.84%; in data set [2], 91.17%.

As for `CN[C@@H]1[C@@H](O)[C@@H](O[C@@H]2[C@@H](O)[C@H](O[C@H]3O[C@H]([C@@H](C)O)[C@@H](O)[C@H](O)[C@H]3N)[C@@H](N)C[C@H]2N)OC[C@]1(C)O` [GENETICIN], the results for the residual activity in data set [1] and in data set [2] were 83.57% and 105.6%, respectively.

`CNNC.Cl` [1,2-DIMETHYLHYDRAZINE HYDROCHLORIDE]: the residual activity turned out to be 108.5% in data set [1] and 99.77% in data set [2].

For the molecule `O=C([O-])c1cc(=O)c2c(OCC(O)COc3cccc4oc(C(=O)[O-])cc(=O)c34)cccc2o1.[Na+].[Na+]` [CROMOLYN SODIUM], the residual activity amounted to 101.2% in data set [1] and 94.62% in data set [2].

For `CCCCN(CCCC)CCCOC(=O)c1ccc(N)cc1` [BUTACAINE], the results for the residual activity in data set [1] and in data set [2] were 93.87% and 114.4%, respectively.

On to `COc1ccc(-c2cc(=O)c3c(OC(C)=O)cc(OC(C)=O)cc3o2)cc1` [ACACETIN DIACETATE], for which the residual activity in data set [1] was 133.5%; in data set [2], 127.6%.

As to `CN1CCCCC1c1ccc(-c2cccnc2)nc1.Cl` (configuration not stated) [ANABASAMINE HYDROCHLORIDE], the results for the residual activity in data set [1] and in data set [2] were 100% and 108.2%, respectively.

With `COC1=C(OC)C(=O)C(C/C=C(\C)CC/C=C(\C)CC/C=C(\C)CC/C=C(\C)CC/C=C(\C)CC/C=C(\C)CC/C=C(\C)CC/C=C(\C)CC/C=C(\C)CCC=C(C)C)=C(C)C1=O` [UBIDECARENONE], the residual activity in data set [1] is given as 118.6%; in data set [2], 137.7%.

In the case of `C[C@]12CCC3c4ccc(OC(=O)c5ccccc5)cc4CCC3C1CCC2=O` (some centres not stated) [ESTRONE BENZOATE], the residual activity is 121% in data set [1] and 95.01% in data set [2].

Turning to `CC(CCc1ccc(O)cc1)NCCc1ccc(O)c(O)c1.Cl` (configuration not stated) [DOBUTAMINE HYDROCHLORIDE], the residual activity came to 91.62% in data set [1] and 105.8% in data set [2].

Consider `COC(=O)[C@H]1[C@H]2C[C@H]3c4[nH]c5cc(OC)ccc5c4CCN3C[C@H]2C[C@@H](OC(=O)c2cc(OC)c(OC)c(OC)c2)[C@@H]1OC` [ISORESERPINE], for which the residual activity is recorded as 38.5% in data set [1] and 42.22% in data set [2].

Turning to `Cc1c(O)c(C(=O)CC(C)C)c2oc3c(C(=O)CC(C)C)c(O)c(C)c(O)c3c2c1O` [RHODOMYRTOXIN], the residual activity in data set [1] came to 31.12%; in data set [2] it was 66.23%.

Consider `CC1(C)O[C@@H]2[C@@H](CO[C@@]3(COS(N)(=O)=O)OC(C)(C)O[C@@H]23)O1` [TOPIRAMATE], for which the residual activity is on record as 93.31% in data set [1] and 106.5% in data set [2].

On to `COc1c2occc2c(OC)c2c(=O)cc(C)oc12` [KHELLIN], for which the values for the residual activity in data set [1] and in data set [2] were 83.15% and 102.2%, respectively.

Regarding `CC(C)C[C@H]1C(=O)N2CCC[C@H]2[C@]2(O)O[C@](NC(=O)[C@@H]3C=C4c5cccc6[nH]c(Br)c(c56)C[C@H]4N(C)C3)(C(C)C)C(=O)N12.CS(=O)(=O)O` [BROMOCRIPTINE MESYLATE], the residual activity is 67.37% in data set [1] and 84.69% in data set [2].

For the molecule `NC(=O)C[S+]([O-])C(c1ccccc1)c1ccccc1` (configuration not stated) [MODAFINIL], the residual activity in data set [1] is reported as 113.7%; in data set [2] it was 95.61%.

With `CCOP(=S)(OCC)SCSCC` [PHORATE], the residual activity in data set [1] is reported as 102.7%; in data set [2] it was 107.3%.

On to `CC(=O)O[C@H]1CC[C@]2(C)C3=CC(=O)[C@@]4(C)C(C[C@@H]5OC6(OCC(C)CC6Br)[C@@H](C)[C@@H]54)C3CC[C@H]2C1` (stereo partly drawn) [3beta-ACETOXY-23-BROMO-ISOALLOSPIROST-9 (11)-ENE-12-ONE], for which the residual activity in data set [1] was 102.6%; in data set [2], 96.22%.

In the case of `O=C(O)c1cc(O)c2ccc(Cl)cc2n1` [7-CHLOROKYNURENIC ACID], the residual activity in data set [1] was 93.09%; in data set [2], 89.9%.

What is called residual activity is the signal under treatment as a percentage of the control signal.
